Measured values reported in US20160313301A1, “METHOD FOR PREDICTING ANTITUMOR EFFICACY OF HSP90 INHIBITOR IN CANCER TREATMENT” (NIPPON KAYAKU KABUSHIKI KAISHA, priority 2013, published 2016).

Assays:
Format in all cases: in vivo
[1] = system: human ovarian cancer cells TOGY-18; assay: Anti-tumor test in mice transplanted subcutaneously with tumor (TOGY-18); settings: TOGY-18 s.c. in mice; 125 mg/kg tail vein three times at 7 day intervals
Method: (§1) Human ovarian cancer cell lines OC-10-JCK, OC-11-JCK, and TOGY-18, and a human breast cancer cell line MC-19-JCK were obtained from Central Institute for Experimental Animals. Cryopreserved tumor pieces were thawed, and then OC-10-JCK, OC-11-JCK, and MC-19-JCK were transplanted subcutaneously to SCID mice, while TOGY-18 was transplanted subcutaneously to nude mice. After the tumors were grown, the tumors were removed and cut into tumor pieces. The tumor pieces were transplanted subcutaneously to SCID mice or nude mice with trocars. The tumors were maintained by repeated transplantation in the same manner as described above to prepare tumors to be transplanted. Human ovarian cancer cell lines ES-2, SK-OV-3, OV-90, and TOV-21G, and a human lung cancer cell line NCI-H1975 were obtained from American Type Culture Collection (ATCC). The SK-OV-3 and NCI-H1975 cell lines were grown in recommended culture media, of which about 1×10^7 cells were suspended into HBSS and then injected subcutaneously to SCID mice. After the cells formed tumors, the tumors were removed and cut into tumor pieces. The tumor pieces were transplanted subcutaneously to SCID mice with trocars. The tumors were maintained by repeated transplantation in the same manner as described above to prepare tumors to be transplanted. […]

[2] = system: human lung cancer cells NCI-H1975; assay: Anti-tumor test in mice transplanted subcutaneously with tumor (NCI-H1975); settings: NCI-H1975 s.c. in mice; 150 mg/kg tail vein three times at 7 day intervals
Method: as §1

[3] = system: human ovarian cancer cells OC-11-JCK/PTX; assay: Anti-tumor test in mice transplanted subcutaneously with tumor (OC-11-JCK/PTX); settings: OC-11-JCK/PTX s.c. in mice; 125 mg/kg tail vein three times at 7 day intervals
Method: Human ovarian cancer cell lines OC-10-JCK, OC-11-JCK, and TOGY-18, and a human breast cancer cell line MC-19-JCK were obtained from Central Institute for Experimental Animals. Cryopreserved tumor pieces were thawed, and then OC-10-JCK, OC-11-JCK, and MC-19-JCK were transplanted subcutaneously to SCID mice, while TOGY-18 was transplanted subcutaneously to nude mice. After the tumors were grown, the tumors were removed and cut into tumor pieces. The tumor pieces were transplanted subcutaneously to SCID mice or nude mice with trocars. The tumors were maintained by repeated transplantation in the same manner as described above to prepare tumors to be transplanted. Human ovarian cancer cell lines ES-2, SK-OV-3, OV-90, and TOV-21G, and a human lung cancer cell line NCI-H1975 were obtained from American Type Culture Collection (ATCC). The SK-OV-3 and NCI-H1975 cell lines were grown in recommended culture media, of which about 1×10^7 cells were suspended into HBSS and then injected subcutaneously to SCID mice. After the cells formed tumors, the tumors were removed and cut into tumor pieces. The tumor pieces were transplanted subcutaneously to SCID mice with trocars. The tumors were maintained by repeated transplantation in the same manner as described above to prepare tumors to be transplanted. The OV-90 cell line was grown in a recommended culture medium, of which about 1×10^6 cells were suspended into HBSS and then injected subcutaneously to SCID mice. After the cells formed a tumor, the tumor was subjected to an anti-tumor test. The TOV-21G cell line was grown in a recommended culture medium, of which about 1×10^7 cells were suspended into HBSS and then injected subcutaneously to SCID mice. After the cells formed a tumor, the tumor was subjected to the anti-tumor test. The ES-2 cell line was grown in a recommended culture medium, suspended into HBSS, and then injected subcutaneously to nude mice. After the cells formed a tumor, the tumor was removed and cut into tumor pieces. The tumor pieces were transplanted subcutaneously to nude mice with a trocar. […]

[4] = system: human breast cancer cells JIMT-1; assay: Anti-tumor test in mice transplanted subcutaneously with tumor (JIMT-1); settings: JIMT-1 s.c. in mice; 125 mg/kg tail vein three times at 7 day intervals
Method: as §1

[5] = system: human breast cancer cells MC-19-JCK; assay: Anti-tumor test in mice transplanted subcutaneously with tumor (MC-19-JCK); settings: MC-19-JCK s.c. in mice; administered once at 125 mg/kg
Method: as §1

CC(C)c1cc(-c2n[nH]c(=O)n2-c2ccc3c(ccn3C)c2)c(O)cc1O [Ganetespib, reference compound]
T/C % (lowest value from the beginning to the 21st day of administration) [1]: 67.7% | T/C % (lowest value from the beginning to the 21st day of administration) [2]: 44.0% | T/C % (lowest value from the beginning to the 21st day of administration) [3]: 84.0% | T/C % (lowest value from the beginning to the 21st day of administration) [4]: 56.6% | T/C % (lowest value from the beginning to the 21st day of administration) [5]: 19.8%
